The record followed here is ChEMBL document CHEMBL1129977, “Antitumor agents. 172. Synthesis and biological evaluation of novel deacetamidothiocolchicin-7-ols and ester analogs as antitubulin agents” (J Med Chem, 1997).

One assay has as its target Tubulin. The experiment in a line: Inhibition of Tubulin polymerization after 20 minutes of administration at 30 degree Centigrade. Format: functional, organism-based.
In a further assay the test system is CA46. In words: Inhibits the growth of the human Burkitt lymphoma CA46 cell. Format: functional, cell-based.
Assay [1] addresses Tubulin alpha chain (Sus scrofa) (UniProt P02550). The conditions noted are these: at 5 µM.
Assay [2] has the same target. The experiment in a line: Binding affinity of [3H]- colchicine (5.0 uM) to tubulin (1.0 uM, 0.1 mg/mL) was evaluated at concentration of 50 uM.

Molecules are shown by their SMILES.

Chain of Tubulin alpha chain (Sus scrofa) (P02550 whole entry, looked up): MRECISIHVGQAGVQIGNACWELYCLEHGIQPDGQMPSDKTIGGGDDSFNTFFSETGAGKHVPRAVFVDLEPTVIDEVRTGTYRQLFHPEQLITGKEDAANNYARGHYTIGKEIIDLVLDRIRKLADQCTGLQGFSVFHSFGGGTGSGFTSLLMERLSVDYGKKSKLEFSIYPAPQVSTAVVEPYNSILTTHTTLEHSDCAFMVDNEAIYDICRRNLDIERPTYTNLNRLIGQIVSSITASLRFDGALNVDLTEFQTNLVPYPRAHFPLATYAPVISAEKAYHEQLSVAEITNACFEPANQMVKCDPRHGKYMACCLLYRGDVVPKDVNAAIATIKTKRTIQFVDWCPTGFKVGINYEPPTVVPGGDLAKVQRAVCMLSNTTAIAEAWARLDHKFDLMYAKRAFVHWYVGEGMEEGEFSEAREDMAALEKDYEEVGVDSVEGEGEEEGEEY

`COc1cc2c(c(OC)c1OC)-c1ccc(SC)c(=O)cc1C(OC(=O)c1ccncc1)CC2` (centres undefined) [listing 1 of 2 here] had an IC50 at Tubulin of 1.1 µM. This counts as single-digit micromolar.

Take `COc1cc2c(c(OC)c1OC)-c1ccc(SC)c(=O)cc1C(=O)CC2` [THIOCOLCHICONE]: the IC50 in the assay on CA46 is 18 µM; at Tubulin, 0.76 µM. Moreover, the inhibition in assay [1] turned out to be 70%.

On to `COc1cc2c(c(OC)c1OC)-c1ccc(SC)c(=O)cc1C(Br)CC2` (centres undefined), for which, at Tubulin, half-maximal inhibition (IC50) was put at 1.1 µM.

`CCCC(=O)O[C@H]1CCc2cc(OC)c(OC)c(OC)c2-c2ccc(SC)c(=O)cc21`: the values for the IC50 in the assay on CA46 and on Tubulin were 29 µM and 0.85 µM, respectively. Also, in assay [1], the inhibition came to 66%.

On to `COc1cc2c(c(OC)c1OC)-c1ccc(SC)c(=O)cc1[C@H](O)CC2`, for which the inhibition came out at 16% in assay [1] and 73% in assay [2].

As to `COc1cc2c(c(OC)c1OC)-c1ccc(SC)c(=O)cc1[C@@H](OC(=O)c1cccnc1)CC2`, the results for the IC50 in the assay on CA46 and at Tubulin were 27 µM and 0.76 µM, respectively. This compound returned an inhibition in assay [1] of 65%.

The compound `COc1cc2c(c(OC)c1OC)-c1ccc(SC)c(=O)cc1[C@@H](OC(=O)C13CCC(C)(C(=O)O1)C3(C)C)CC2` (some centres undefined) had an IC50 on Tubulin of 1.4 µM. This counts as single-digit micromolar.

On to `COc1cc2c(c(OC)c1OC)-c1ccc(SC)c(=O)cc1[C@@H](OC(=O)c1ccncc1)CC2`, for which the concentration for half-maximal inhibition (IC50) turned out to be 2.8 µM with CA46 and 0.56 µM at Tubulin. The inhibition in assay [1] came out at 69%.

With `COc1cc2c(c(OC)c1OC)-c1ccc(SC)c(=O)cc1C(OC(=O)c1cccnc1)CC2` (centres undefined), the half-maximal inhibitory concentration (IC50) against Tubulin was 0.88 µM. In other words, the sub-micromolar range.

`COc1cc2c(c(OC)c1OC)-c1ccc(SC)c(=O)cc1[C@@H](OC(C)=O)CC2` returned an IC50 with CA46 of 3.4 µM. The inhibition in assay [1] turned out to be 79%.

`COc1cc2c(c(OC)c1OC)-c1ccc(SC)c(=O)cc1[C@H](OC(C)=O)CC2`: the half-inhibitory concentration (IC50) in the assay on CA46 came out at 40 µM. For the same compound, the inhibition was determined as 11% in assay [1] and 74% in assay [2].

In turn, `CCCC(=O)OC1CCc2cc(OC)c(OC)c(OC)c2-c2ccc(SC)c(=O)cc21` (centres undefined) registered a 50% inhibitory concentration (IC50) against Tubulin of 1.5 µM.

The compound `COc1cc2c(c(OC)c1OC)-c1ccc(SC)c(=O)cc1[C@H](OC(=O)C13CCC(C)(C(=O)O1)C3(C)C)CC2` (some centres undefined) came in with an IC50 against Tubulin of 17 µM.

Turning to `COc1cc2c(c(OC)c1OC)-c1ccc(SC)c(=O)cc1C(OC(=O)c1ccncc1)CC2` (centres undefined) [listing 2 of 2 here], inhibition against Tubulin was half-maximal at 0.97 µM (IC50).

`COc1cc2c(c(OC)c1OC)-c1ccc(SC)c(=O)cc1C(OC(=O)c1ccccc1)CC2` (centres undefined) registered a half-maximal inhibitory concentration (IC50) on Tubulin of 1.4 µM.

`COc1cc2c(c(OC)c1OC)-c1ccc(SC)c(=O)cc1[C@@H](O)CC2` gave an IC50 in the assay on CA46 of 2.8 µM. Also, the inhibition in assay [1] was determined as 85%.
